For one compound, IC50 and ED50 results are on record in US5395847A, “Imidazolyl-alkenoic acids” (SmithKline Beecham Corporation, priority 1994, dated 1995).

In test [1] the target is T1, human AT-1 receptors (Homo sapiens, UniProt P30556).
T1 construct: expressed in transfected cells
T1 sequence (P30556 1-359): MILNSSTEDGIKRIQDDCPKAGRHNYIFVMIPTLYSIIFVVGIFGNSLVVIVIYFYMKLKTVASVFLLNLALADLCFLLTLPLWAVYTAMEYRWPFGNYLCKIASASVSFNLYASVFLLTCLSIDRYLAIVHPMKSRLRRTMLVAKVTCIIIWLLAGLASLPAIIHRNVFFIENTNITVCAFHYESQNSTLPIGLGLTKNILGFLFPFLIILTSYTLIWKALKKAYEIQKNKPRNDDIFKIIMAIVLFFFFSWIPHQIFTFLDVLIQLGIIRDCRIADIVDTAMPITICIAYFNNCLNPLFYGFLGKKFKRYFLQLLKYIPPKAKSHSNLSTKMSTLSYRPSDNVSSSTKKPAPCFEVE
The experiment in a line: Radioligand binding assay, 125I-angiotensin II displacement. As to conditions: human AT-1 receptors expressed in mouse cell line L h AT-1-D6; 80 pM 125I-angiotensin II; 1 hour at 25° C.; read-out: IC50 (concentration of antagonist needed to displace 50% of the total specifically bound angiotensin II). As to the method:
The radioligand binding assay is a modification of a method previously described in detail (Gunther et al., Circ. Res. 47:278, 1980). A stable clone of human AT-1 receptors expressed in the mouse cell line L h AT-1-D6 is used. Cells are incubated in Tris buffer with 80 pM of 125I-angiotensin II with or without angiotensin II antagonists for 1 hour at 25° C. The incubation is terminated by rapid filtration and receptor bound ^125 I-angiotensin II trapped on the filter is quantitated with a gamma counter. The potency of angiotensin II antagonists is expressed as the IC50 which is the concentration of antagonist needed to displace 50% of the total specifically bound angiotensin II.

Test [2] relates to pressor response to angiotensin II. In words: Inhibition of pressor response to angiotensin II in conscious rats. Type of test: in vivo. The following applies: Rattus norvegicus, po, orally, change in mean arterial pressure in response to intravenous angiotensin II, read-out: IC50 (dose of compound needed to produce 50% inhibition of the control response to angiotensin II). As to the method: Rats are prepared with indwelling femoral arterial and venous catheters and a stomach tube (Gellai et al., Kidney Int. 15:419, 1979). Two to three days following surgery the rats are placed in a restrainer and blood pressure is continuously monitored from the arterial catheter with a pressure transducer and recorded on a polygraph. The change in mean arterial pressure in response to intravenous injections of […] angiotensin II is compared at various time points prior to and following the administration of the compounds intravenously or orally at doses of 0.1 to 300 mg/k g. The dose of compound needed to produce 50% inhibition of the control response to angiotensin II (IC50) is used to estimate the potency of the compounds.

With `Br.CCCCc1ncc(/C=C(\Cc2cccs2)C(=O)Oc2ccc3c(c2)CCC3)n1Cc1ccc(C(=O)O)c2ccccc12` [Example 1, E-α-[[2-n-butyl-1-[(4-carboxy-1-naphthaleneyl)methyl]-1H-imidazol-5-yl]methylene]-2-thiophenepropanoic Acid Indan-5-yl Ester, Hydrobromide], the IC50 in test [1] came out at 0.342 µM. In addition, in test [2], the ED50 was 0.053 mg/kg.
